The text below walks through data of US11447486B2, “2-amino-benzimidazole derivatives and their use as 5-lipoxygenase and/or prostaglandin E synthase inhibitors” (INSTITUT PASTEUR KOREA, priority 2014, dated 2022).

Test [1] has as its system Rat basophilic leukemia (RBL) cells. Kind of test: LTB4 secretion assay in RBL (rat basophilic leukemia cells). Format: cell-based. Conditions: Rattus norvegicus, RBL. The method, then: Rat basophilic leukemia (RBL) cells (ATCC, Cat #CRL-2256) were maintained in EMEM (ATCC, Cat #30-2003) supplemented with 15% FBS. The day before RBL assay, cells were seeded at a concentration of 2×10^4 cells per well in 96-well plates. The media was replaced with 100 ul of EMEM supplemented with 0.5% FBS and compounds in dose response(5 nM to 100 uM) were added. After 15 min of pre-incubation at 37° C., arachidonic acid and calcium ionophore (A23187) were added to give a final concentration of 2.5 uM and 5 uM, respectively. After a further 10 min incubation at 37° C., culture supernatant was transferred and quantification of LTB4 was done with a Leukotriene B4 EIA kit (Cayman, Cat #520111) as instructed.

The next test has as its target T1, human 5-LOX (Homo sapiens, UniProt P09917).
T1 construct: purchased Cayman 60402; host or cells: insect cells (lysate)
T1 sequence (P09917 1-674): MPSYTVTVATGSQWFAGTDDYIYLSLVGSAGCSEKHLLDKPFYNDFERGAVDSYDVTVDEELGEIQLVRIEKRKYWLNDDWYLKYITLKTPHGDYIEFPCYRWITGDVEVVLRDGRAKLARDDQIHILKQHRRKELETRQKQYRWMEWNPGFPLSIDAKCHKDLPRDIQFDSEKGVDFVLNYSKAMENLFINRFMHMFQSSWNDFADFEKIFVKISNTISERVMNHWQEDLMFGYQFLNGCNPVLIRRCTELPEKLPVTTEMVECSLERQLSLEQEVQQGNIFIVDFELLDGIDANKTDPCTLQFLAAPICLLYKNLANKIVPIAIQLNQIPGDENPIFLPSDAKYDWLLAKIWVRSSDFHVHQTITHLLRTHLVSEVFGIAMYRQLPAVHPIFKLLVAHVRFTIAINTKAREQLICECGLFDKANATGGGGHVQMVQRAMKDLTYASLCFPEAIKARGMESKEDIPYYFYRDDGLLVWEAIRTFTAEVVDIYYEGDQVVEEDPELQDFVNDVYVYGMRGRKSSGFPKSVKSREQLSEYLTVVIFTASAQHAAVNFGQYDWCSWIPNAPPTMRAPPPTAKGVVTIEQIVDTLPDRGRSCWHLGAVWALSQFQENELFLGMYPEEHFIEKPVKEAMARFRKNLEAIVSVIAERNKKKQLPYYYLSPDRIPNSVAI
The test can be described thus: 5-LOX enzyme activity, fluorescence method (5-HPETE, H2DCFDA). It counts as biochemical. Conditions: read-out: 5-LO (IC50). The protocol: The activity of compounds against 5-LOX were determined by measuring LTB4 (leukotriene B4) levels and/or by a fluorescence method. Both approaches are outlined in more detail below;
The compound, in a dose response manner(0.5 nM to 10 uM), and enzyme mixture was pre-incubated for 5 minutes, and the enzymatic reaction was initiated by addition of ATP and arachidonic acid to a final concentration of 100 uM and 3 uM, respectively. […] All steps were carried out at room temperature.

One may read the EC50 as the concentration giving half of the maximal effect. A low value points to an effect from little substance. A word on the IC50: it is the concentration that gives 50% inhibition. Consider `Cn1c(NCc2ccc(Oc3ccc(Cl)cc3)cc2)nc2ccc(N)cc21` [Compound 167], for which the EC50 in test [1] is > 20 µM. Moreover, at human 5-LOX, the IC50 was < 1000 nM.
For `Nc1ccc2nc(NCc3ccc(C(=O)C4CCCC4)cc3)[nH]c2c1` [Compound 168] the same measures were < 10 µM and < 1000 nM.
The matching figures for `Nc1ccc2nc(NCC(Oc3ccc(Cl)cc3)c3ccccc3)[nH]c2c1` (centres unmarked) [Compound 169]: < 10 µM and < 1000 nM.
For the molecule `Cn1c(NCc2ccc(Oc3ccc(Cl)cc3)cc2)nc2ccc(NCC(N)=O)cc21` [Compound 170], the EC50 in test [1] is 10 to 20 µM. For the same molecule, the IC50 at human 5-LOX is < 1000 nM.
For `Cn1c(NCc2ccc(Oc3ccc(Cl)cc3)cc2)nc2ccc(NCC#N)cc21` [Compound 171] the same measures were > 20 µM and < 1000 nM.
The matching figures for `Cn1ccnc1C(=O)c1ccc(CNc2nc3ccc(N)cc3[nH]2)cc1` [Compound 173]: > 20 µM and < 1000 nM.
The matching figures for `Cn1c(NCN2CC(Cc3ccccc3)OC2=O)nc2ccc(N)cc21` (centres unmarked) [Compound 174]: > 20 µM and 1000 to 10000 nM.
In turn, `Nc1ccc2nc(N3CCC(C(=O)c4ccc(OC(F)(F)F)cc4)C3)[nH]c2c1` (centres unmarked) [Compound 178] returned an EC50 in test [1] of 10 to 20 µM. Further, the IC50 on human 5-LOX is < 1000 nM.
The matching figures for `COC(=O)c1ccc(CNc2ccc3nc(N(C)C)[nH]c3c2)cc1` [Compound 179]: < 10 µM and < 1000 nM.
For `Clc1ccc(OC(CNc2nc3ccc(NC4COC4)cc3[nH]2)c2ccccc2)cc1` (centres unmarked) [Compound 180] the same measures were < 10 µM and < 1000 nM.
For `COC(c1ccc(CNc2nc3ccc(N)cc3[nH]2)cc1)c1ccccn1` (centres unmarked) [Compound 181] the same measures were > 20 µM and < 1000 nM.
Take `Cn1c(NCc2ccc(Oc3ccc(Cl)cc3)cc2)nc2ccc(N3CCC3)cc21` [Compound 182]: in test [1], the EC50 is 10 to 20 µM. The IC50 on human 5-LOX is < 1000 nM.
For `CN(C)c1nc2cc(N3CCCC(Oc4ccc(OC(F)(F)F)cc4)C3)ccc2[nH]1` (centres unmarked) [Compound 183] the same measures were > 20 µM and < 1000 nM.
For the molecule `CCOC(=O)CN(c1ccc(F)cc1)c1ccc(CNc2ccc3nc(N(C)C)[nH]c3c2)cc1` [Compound 185], the EC50 in test [1] is < 10 µM. The IC50 at human 5-LOX is < 1000 nM.
The matching figures for `Nc1ccc2nc(NCc3coc(Cc4ccc(Cl)cc4)n3)[nH]c2c1` [Compound 186]: < 10 µM and < 1000 nM.
The matching figures for `CC(C)(CO)Nc1nc2ccc(N)cc2n1Cc1ccc(Oc2ccc(Cl)cc2)cc1` [Compound 187]: < 10 µM and < 1000 nM.
With `CCOC(c1ccc(CNc2nc3ccc(N)cc3[nH]2)cc1)c1ccccn1` (centres unmarked) [Compound 188], the EC50 in test [1] is > 20 µM. For the same molecule, on human 5-LOX, the IC50 is < 1000 nM.
As to `COC(c1ccc(CNc2nc3ccc(NC4COC4)cc3[nH]2)cc1)c1ccccn1` (centres unmarked) [Compound 189], the EC50 in test [1] was > 20 µM. Besides, the IC50 at human 5-LOX was < 1000 nM.
The matching figures for `Cn1c(NCc2ccc(Oc3ccc(Cl)cc3)cc2)nc2ccc(N3CC(O)C3)cc21` [Compound 192]: < 10 µM and < 1000 nM.
For `COC(=O)c1ccc(OC2CCN(c3ccc4[nH]c(N(C)C)nc4c3)C2)cc1` (centres unmarked) [Compound 194] the same measures were < 10 µM and < 1000 nM.
The matching figures for `CC(C)(C(O)c1ccc(CNc2nc3ccc(N)cc3[nH]2)cc1)C(F)(F)F` (centres unmarked) [Compound 198]: 10 to 20 µM and < 1000 nM.
In the case of `Cn1nccc1-c1ccc(CNc2nc3cc(N)ccc3[nH]2)cc1` [Compound 200], the EC50 in test [1] was < 10 µM. Further, the IC50 at human 5-LOX was < 1000 nM.
The matching figures for `Cn1nccc1-c1ccc(CNc2nc3cc(NC4COC4)ccc3[nH]2)cc1` [Compound 201]: > 20 µM and < 1000 nM.
For `CC(C)(C(=O)c1ccc(CNc2nc3ccc(N)cc3[nH]2)cc1)C(F)(F)F` [Compound 205] the same measures were < 10 µM and < 1000 nM.
The matching figures for `Nc1ccc2nc(N3CCC(O)C3)n(Cc3ccc(Oc4ccc(Cl)cc4)cc3)c2c1` (centres unmarked) [Compound 206]: < 10 µM and < 1000 nM.
With `CCOC(=O)CNc1nc2ccc(N)cc2n1Cc1ccc(Oc2ccc(Cl)cc2)cc1` [Compound 207], in test [1], the EC50 is < 10 µM. Moreover, the IC50 at human 5-LOX is < 1000 nM.
The matching figures for `CC(C)(O)Cn1c(NCc2ccc(Oc3ccc(Cl)cn3)cc2)nc2ccc(NC3COC3)cc21` [Compound 208]: < 10 µM and < 1000 nM.
The matching figures for `CC(C)(O)Cn1c(NCc2ccc(Oc3ccc(Cl)cc3)cc2)nc2ccc(N)cc21` [Compound 209]: < 10 µM and < 1000 nM.
For `Cn1c(NCc2ccc(Oc3ccc(Cl)cn3)cc2)nc2ccc(N)cc21` [Compound 210] the same measures were < 10 µM and < 1000 nM.
For `CN(C)c1nc2ccc(NCc3ccc(N(CC(N)=O)c4ccc(F)cc4)cc3)cc2[nH]1` [Compound 212], in test [1], the EC50 was < 10 µM. The IC50 at human 5-LOX was < 1000 nM.
Take `CN(C)c1nc2ccc(NCc3ccc(N(Cc4ncco4)c4ccc(F)cc4)cc3)cc2[nH]1` [Compound 213]: in test [1], the EC50 was < 10 µM. Moreover, the IC50 on human 5-LOX is < 1000 nM.
The matching figures for `CN(C)c1nc2cc(NCc3coc(Nc4ccc(Cl)cc4)n3)ccc2[nH]1` [Compound 214]: < 10 µM and < 1000 nM.
For `OCC(O)CNc1ccc2nc(NCc3ccc(Oc4ccc(Cl)cc4)cc3)[nH]c2c1` (centres unmarked) [Compound 215] the same measures were < 10 µM and < 1000 nM.
The matching figures for `CN(C)c1nc2ccc(NCc3ccc(N(Cc4ncc[nH]4)c4ccc(F)cc4)cc3)cc2[nH]1` [Compound 216]: < 10 µM and < 1000 nM.
`NC(=O)CNc1nc2ccc(N)cc2n1Cc1ccc(Oc2ccc(Cl)cc2)cc1` [Compound 217]: the EC50 in test [1] is < 10 µM. In addition, the IC50 on human 5-LOX was < 1000 nM.
As to `CCOC(=O)c1coc(-c2ccc(CNc3ccc4[nH]c(N(C)C)nc4c3)cc2)n1` [Compound 218], in test [1], the EC50 was < 10 µM. The IC50 on human 5-LOX is < 1000 nM.
For `CN(C)c1nc2cc(NCc3ccc(-c4ncco4)cc3)ccc2[nH]1` [Compound 220] the same measures were < 10 µM and < 1000 nM.
For `CN(C)c1nc2ccc(NCc3ccc(-c4cccc(=O)[nH]4)cc3)cc2[nH]1` [Compound 221] the same measures were > 20 µM and < 1000 nM.
For `Nc1ccc2[nH]c(NCc3ccc(N4CCOC(COc5ccc(OC(F)(F)F)cc5)C4)nc3)nc2c1` (centres unmarked) [Compound 222] the same measures were 10 to 20 µM and < 1000 nM.
As to `Cn1c(NCc2ccc(Oc3ccc(C(F)(F)F)nc3)cc2)nc2ccc(N)cc21` [Compound 223], in test [1], the EC50 is < 10 µM. For the same molecule, the IC50 on human 5-LOX was < 1000 nM.
For `Cn1c(NCc2ccc(Oc3cccnc3)cc2)nc2ccc(N)cc21` [Compound 224] the same measures were < 10 µM and < 1000 nM.
For `Nc1ccc2nc(NCC(=O)O)n(Cc3ccc(Oc4ccc(Cl)cc4)cc3)c2c1` [Compound 225] the same measures were > 20 µM and < 1000 nM.
As for `CN(C)c1nc2cc(NCc3ccc(-c4nc(C(=O)O)co4)cc3)ccc2[nH]1` [Compound 228], the EC50 in test [1] is > 20 µM. The IC50 on human 5-LOX was < 1000 nM.
